This note sets out measurements from PubChem BioAssay AID234 (DTP/NCI, 2004).

The assay deals with C3AKF1 mice, hamster liver cystadenocarcinoma s.c., tumor weight T/C. As to the kind of experiment: NCI In Vivo Anticancer Drug Screen. Data for tumor model Cystadenocarcinoma, Liver (No. 1) (Hamster) (subcutaneous) in C3AKF1 (CHKRF1) mice. The conditions noted are these: endpoint: mean tumor weight, schedule: Q01DX010 (ip), higher = larger tumour. The procedure: The antitumor activity of compounds was measured in mice bearing transplantable tumors. Survival or tumor size were measured and the results are expressed as the measurement made in the treated group (T) divided by the measurement made in the vehicle treated control group (C). The tumor model used in this assay is Cystadenocarcinoma, Liver (No. 1) (Hamster) (subcutaneous) in C3AKF1 (CHKRF1) mice

The mark [1] stands for this setting: dose: 12.0 mg/kg/injection, vehicle: carboxymethylcellulose (CMC).
[2] abbreviates: dose: 25.0 mg/kg/injection, vehicle: carboxymethylcellulose (CMC).
Where [3] appears, read: dose: 50.0 mg/kg/injection, vehicle: carboxymethylcellulose (CMC).
[4] abbreviates: dose: 0.5 mg/kg/injection, vehicle: carboxymethylcellulose (CMC).
[5] abbreviates: dose: 1.0 mg/kg/injection, vehicle: carboxymethylcellulose (CMC).
[6] abbreviates: dose: 2.0 mg/kg/injection, vehicle: carboxymethylcellulose (CMC).
The mark [7] stands for this setting: dose: 37.5 mg/kg/injection, vehicle: carboxymethylcellulose (CMC).
The mark [8] stands for this setting: dose: 75.0 mg/kg/injection, vehicle: carboxymethylcellulose (CMC).
Setting [9] is: dose: 150.0 mg/kg/injection, vehicle: carboxymethylcellulose (CMC).
Where [10] appears, read: dose: 19.0 mg/kg/injection, vehicle: carboxymethylcellulose (CMC).
Setting [11] is: dose: 3.0 mg/kg/injection, vehicle: carboxymethylcellulose (CMC).
The mark [12] stands for this setting: dose: 20.0 mg/kg/injection, vehicle: carboxymethylcellulose (CMC).
Setting [13] is: dose: 40.0 mg/kg/injection, vehicle: carboxymethylcellulose (CMC).
[14] abbreviates: dose: 125.0 mg/kg/injection, vehicle: carboxymethylcellulose (CMC).
[15] abbreviates: dose: 250.0 mg/kg/injection, vehicle: carboxymethylcellulose (CMC).
Where [16] appears, read: dose: 100.0 mg/kg/injection, vehicle: carboxymethylcellulose (CMC).
Where [17] appears, read: dose: 15.0 mg/kg/injection, vehicle: carboxymethylcellulose (CMC).

Molecules are shown by their SMILES. Values joined by “and” are separate entries in the source; they are usually repeats but may differ in a detail not shown here. Equal entries are not always repeated. Results filed as inconclusive are left out.

As to `S=c1nc[nH]c2c1ncn2C1CCCO1` (stereo not given), the T/C was 95 % of control under setting [1], 74 % of control under setting [2] and 63 % of control under setting [3].

With `O=P(N1CC1)(N1CC1)N1CC1`, the T/C reads like this: under setting [4], 93 % of control; under setting [5], 65 % of control; under setting [6], 71 % of control; (dose: 4.0 mg/kg/injection, vehicle: carboxymethylcellulose (CMC)) 48 % of control.

For `S=C(N=Nc1ccccc1)NNc1ccccc1`, the T/C under setting [7] was 98 % of control.

Take `c1ccc(CSc2ncnc3nc[nH]c23)nc1`: the T/C reads like this: (dose: 18.0 mg/kg/injection, vehicle: carboxymethylcellulose (CMC)) 85 % of control; (dose: 37.0 mg/kg/injection, vehicle: carboxymethylcellulose (CMC)) 89 % of control; under setting [8], 90 % of control and 104 % of control; under setting [9], 86 % of control.

Take `COC(=S)SCN(CSC(=S)OC)c1ccccc1Cl`: the T/C (dose: 125.0 mg/kg/injection, vehicle: saline) is 99 % of control; the T/C (dose: 250.0 mg/kg/injection, vehicle: saline) is 84 % of control; the T/C (dose: 500.0 mg/kg/injection, vehicle: saline) is 111 % of control.

`CCCCCCCCCCCCCCCCC(C(=O)O)C(O)(CC(=O)O)C(=O)O` (stereo not given): the T/C is, setting by setting: under setting [10], 78 % of control; under setting [7], 87 % of control.

As to `O=C(c1ccc(C(=O)N2CC2)cc1)N1CC1`, the T/C reads like this: under setting [11], 69 % of control; (dose: 6.0 mg/kg/injection, vehicle: carboxymethylcellulose (CMC)) 85 % of control; under setting [1], 166 % of control; (dose: 24.0 mg/kg/injection, vehicle: carboxymethylcellulose (CMC)) 98 % of control.

As to `Cn1c(=O)c2[nH]c(CCCc3nc4c([nH]3)c(=O)n(C)c(=O)n4C)nc2n(C)c1=O`, the T/C reads like this: under setting [12], 101 % of control; under setting [13], 68 % of control.

On to `COc1ccc(-c2c(CC(=O)O)c3cc(OC)ccc3n2Cc2ccc(Cl)cc2)cc1`, for which the T/C is, setting by setting: under setting [14], 90 % of control; under setting [15], 100 % of control; (dose: 500.0 mg/kg/injection, vehicle: carboxymethylcellulose (CMC)) 100 % of control.

`CCCCSc1nc(N)nc2c1ncn2CC(C)CC` (stereo not given): the T/C (dose: 62.0 mg/kg/injection, vehicle: carboxymethylcellulose (CMC)) is 64 % of control; the T/C under setting [14] was 82 % of control; the T/C under setting [15] was 86 % of control and 94 % of control; the T/C (dose: 750.0 mg/kg/injection, vehicle: carboxymethylcellulose (CMC)) is 54 % of control.

In the case of `O=C(O)C1(NO)CCCC1`, the T/C reads like this: (dose: 12.5 mg/kg/injection, vehicle: carboxymethylcellulose (CMC)) 76 % of control; under setting [2], 108 % of control; under setting [3], 104 % of control; under setting [16], 80 % of control.

On to `CCOc1ccc(Nc2ncnc3nc[nH]c23)cc1CN(CCCl)CCCl`, for which the T/C is 78 % of control (dose: 1.0 mg/kg/injection, vehicle: saline); 99 % of control (dose: 2.0 mg/kg/injection, vehicle: saline); 98 % of control (dose: 4.0 mg/kg/injection, vehicle: saline).

As to `Cn1cnc([N+](=O)[O-])c1Sc1nc(N)nc2c1ncn2C1OC(CO)C(O)C1O` (stereo not given), the T/C under setting [5] was 124 % of control, the T/C under setting [11] was 69 % of control and the T/C under setting [17] was 88 % of control.

As to `CCc1c(CC(=O)O)c2cc(C)ccc2n1Cc1ccc(Cl)cc1`, the T/C is, setting by setting: under setting [3], 70 % of control; under setting [16], 96 % of control.

Turning to `NNc1nncc2ccccc12`, the T/C by setting is: under setting [7], 111 % of control; under setting [8], 94 % of control.

Regarding `Clc1ccc(N2CCN(CCCN3CCN(c4cccc(Cl)c4)CC3)CC2)cc1`, the T/C (dose: 7.5 mg/kg/injection, vehicle: carboxymethylcellulose (CMC)) was 71 % of control; the T/C under setting [17] is 62 % of control; the T/C (dose: 30.0 mg/kg/injection, vehicle: carboxymethylcellulose (CMC)) is 52 % of control; the T/C (dose: 60.0 mg/kg/injection, vehicle: carboxymethylcellulose (CMC)) is 69 % of control.

As to `O=c1[nH]c2cc(Cl)c(Cl)cc2o1`, the T/C reads like this: (dose: 9.5 mg/kg/injection, vehicle: carboxymethylcellulose (CMC)) 119 % of control; under setting [10], 104 % of control; under setting [7], 95 % of control and 107 % of control; under setting [8], 98 % of control.

`N#C[C@@H]1C2C=CC(CC2)[C@H]1C#N`: the T/C was 72 % of control under setting [4], 68 % of control under setting [5] and 57 % of control under setting [6].

Turning to `O=[N+]([O-])c1ccccc1CSc1ncnc2nc[nH]c12`, the T/C under setting [17] is 101 % of control; the T/C (dose: 31.0 mg/kg/injection, vehicle: carboxymethylcellulose (CMC)) was 99 % of control; the T/C under setting [15] is 61 % of control.

Turning to `NC(=O)c1ccc(NC(=O)CCC(=O)Nc2ccc(C(N)=O)cn2)nc1`, the T/C by setting is: (dose: 1.25 mg/kg/injection, vehicle: carboxymethylcellulose (CMC)) 92 % of control; (dose: 2.5 mg/kg/injection, vehicle: carboxymethylcellulose (CMC)) 72 % of control.

As for `COc1ccc2c(c1OC)C(=O)O[C@@H]2[C@H]1c2c(cc3c(c2OC)OCO3)CCN1C`, the T/C reads like this: (dose: 50.0 mg/kg/injection, vehicle: saline) 102 % of control; (dose: 100.0 mg/kg/injection, vehicle: saline) 88 % of control; (dose: 200.0 mg/kg/injection, vehicle: saline) 92 % of control.

In the case of `CCCC(Sc1nc(N)nc2nc[nH]c12)C(=O)O` (stereo not given), the T/C (dose: 10.0 mg/kg/injection, vehicle: carboxymethylcellulose (CMC)) was 66 % of control; the T/C under setting [12] is 103 % of control; the T/C under setting [13] was 123 % of control; the T/C (dose: 80.0 mg/kg/injection, vehicle: carboxymethylcellulose (CMC)) was 116 % of control and 118 % of control; the T/C (dose: 160.0 mg/kg/injection, vehicle: carboxymethylcellulose (CMC)) is 76 % of control.

Consider `O=C(O)Cc1ccc(C2CCCCC2)cc1`, for which the T/C runs as follows: under setting [7], 118 % of control; under setting [8], 115 % of control; under setting [9], 114 % of control and 121 % of control; (dose: 300.0 mg/kg/injection, vehicle: carboxymethylcellulose (CMC)) 94 % of control.

With `CCCNC(=NC)c1ccc(NC(=O)c2ccc(C(=O)Nc3ccc(C(=NC)NCCC)cc3)cc2)cc1`, the T/C under setting [1] is 99 % of control.

Turning to `O=P(c1ccccc1)(N1CC1)N1CC1`, the T/C (dose: 3.0 mg/kg/injection, vehicle: saline) is 108 % of control; the T/C (dose: 6.0 mg/kg/injection, vehicle: saline) is 98 % of control; the T/C (dose: 12.0 mg/kg/injection, vehicle: saline) was 76 % of control; the T/C (dose: 24.0 mg/kg/injection, vehicle: saline) was 212 % of control.

As to `CCOC(=O)Sc1ncnc2nc[nH]c12`, the T/C reads like this: (dose: 14.0 mg/kg/injection, vehicle: carboxymethylcellulose (CMC)) 87 % of control; (dose: 28.0 mg/kg/injection, vehicle: carboxymethylcellulose (CMC)) 84 % of control; (dose: 56.0 mg/kg/injection, vehicle: carboxymethylcellulose (CMC)) 86 % of control.
